Data as given in patent US6737383B1, “Herbicidal oxadiazolidines” (priority 1999, dated 2004).

How the values were obtained:
[1] = system: bedstraw; assay: Test B pre/postemergence bedstraw; assay type: in vivo, Galium aparine
Procedure, shortened: (§1)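 Herbicidal effect was estimated by eye on a ten-point control scale after plants spent twelve to sixteen days in a greenhouse following soil or foliar treatment. Foliar sprays targeted plants at one to four leaves; all doses were formulated in a non-phytotoxic solvent with surfactant.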

[2] = system: blackgrass; assay: Test B pre/postemergence blackgrass; assay type: in vivo, Alopecurus myosuroides
Procedure, shortened: as §1

[3] = system: surinam grass; assay: Test B pre/postemergence surinam grass; assay type: in vivo, Brachiaria decumbens
Procedure, shortened: as §1

[4] = system: cocklebur; assay: Test B pre/postemergence cocklebur; assay type: in vivo, Xanthium strumarium
Procedure, shortened: as §1

[5] = system: crabgrass; assay: Test B pre/postemergence crabgrass; assay type: in vivo, Digitaria sanguinalis
Procedure, shortened: as §1

[6] = system: giant foxtail; assay: Test B pre/postemergence giant foxtail; assay type: in vivo, Setaria faberii
Procedure, shortened: as §1

[7] = system: morningglory; assay: Test B pre/postemergence morningglory; assay type: in vivo, Ipomoea hederacea
Procedure, shortened: as §1

[8] = system: pigweed; assay: Test B pre/postemergence pigweed; assay type: in vivo, Amaranthus retroflexus
Procedure, shortened: as §1

[9] = system: soybean; assay: Test B pre/postemergence soybean; assay type: in vivo, Glycine max
Procedure, shortened: as §1

[10] = system: velvetleaf; assay: Test B pre/postemergence velvetleaf; assay type: in vivo, Abutilon theophrasti
Procedure, shortened: as §1

[11] = system: wheat; assay: Test B pre/postemergence wheat; assay type: in vivo, Triticum aestivum
Procedure, shortened: as §1

[12] = system: wild oat; assay: Test B pre/postemergence wild oat; assay type: in vivo, Avena fatua
Procedure, shortened: as §1

[13] = system: purple nutsedge; assay: Test B pre/postemergence purple nutsedge; assay type: in vivo, Cyperus rotundus
Procedure, shortened: as §1

[14] = system: rice; assay: Test B flood test rice; assay type: in vivo, Oryza sativa
Procedure, shortened: (§2)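 Each value is a visual injury score relative to controls, with 10 meaning complete control and 0 no effect. Evaluation took place twelve to sixteen days after the 2-leaf-stage plants were treated and kept in the greenhouse.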

[15] = system: smallflower flatsedge; assay: Test B flood test smallflower flatsedge; assay type: in vivo, Cyperus difformis
Procedure, shortened: as §2

[16] = system: bamyardgrass; assay: Test B flood test barnyardgrass; assay type: in vivo, Echinochloa crus-galli
Procedure, shortened: as §2

[17] = Postemergence, Rate 125 g/ha, scale of 0 to 10 where 0 is no effect and 10 is complete control
[18] = Preemergence, Rate 62 g/ha, scale of 0 to 10 where 0 is no effect and 10 is complete control
[19] = Preemergence, Rate 125 g/ha, 0 is no effect, 10 is complete control
[20] = Preemergence, Rate 250 g/ha, scale 0 to 10, 0 is no effect, 10 is complete control
[21] = Preemergence, Rate 500 g/ha, scale 0 to 10 (0 no effect, 10 complete control)
[22] = Rate 62 g/ha, Postemergence, scale of 0 to 10 where 0 is no effect and 10 is complete control
[23] = Rate 250 g/ha, Postemergence, scale 0 to 10, 0 is no effect, 10 is complete control
[24] = Rate 500 g/ha, Postemergence, scale 0 to 10
[25] = Postemergence (flood test species), Rate 125 g/ha, scale of 0 to 10 where 0 is no effect and 10 is complete control
[26] = Rate 62 g/ha, Postemergence section, flood test species, scale of 0 to 10 where 0 is no effect and 10 is complete control
[27] = Rate 250 g/ha, Postemergence (flood test), scale 0 to 10, 0 is no effect, 10 is complete control
[28] = Rate 500 g/ha, listed under Postemergence (flood test species), scale 0 to 10

`CC(C)N(C(=O)n1oc(=O)[nH]c1=O)c1ccc(F)cc1` [Compound 164] was tested, and the “Bedstraw plant response rating” value [1, 17] was 0, the “Bedstraw plant response rating” value [1, 18] was 0 and the “Bedstraw plant response rating (0 to 10 scale)” value [1, 19] was 0. For the same compound, the “Bedstraw plant response rating” value [1, 20] was 0, the “Bedstraw plant response rating” value [1, 21] was 0 and the “Bedstraw plant response rating” value [1, 22] was 0. The “Blackgrass plant response rating” value [2, 17] was 0, the “Blackgrass plant response rating” value [2, 18] was 0 and the “Blackgrass plant response rating (0 to 10 scale)” value [2, 19] was 0. For the same compound, the “Blackgrass plant response rating” value [2, 20] was 0, the “Blackgrass plant response rating” value [2, 21] was 0 and the “Blackgrass plant response rating” value [2, 22] was 0. For the same compound, the “Plant response rating, Blackgrass” value [2, 23] was 0, the “Blackgrass plant response rating” value [2, 24] was 0 and the “B. signalgrass plant response rating” value [3, 17] was 0. The “B. signalgrass plant response rating” value [3, 18] was 0, the “B. signalgrass plant response rating (0 to 10 scale)” value [3, 19] was 0 and the “B. signalgrass plant response rating” value [3, 20] was 0. For the same compound, the “B. signalgrass plant response rating” value [3, 21] was 0, the “B. signalgrass plant response rating” value [3, 22] was 0 and the “Plant response rating, B. signalgrass” value [3, 23] was 0. The “B. signalgrass plant response rating” value ([3]; Rate 500 g/ha, Postemergence, scale 0 to 10, 0 no effect, 10 complete control) was 0, the “Cocklebur plant response rating” value [4, 17] was 0 and the “Cocklebur plant response rating” value [4, 18] was 0. The “Cocklebur plant response rating (0 to 10 scale)” value [4, 19] was 0, the “Cocklebur plant response rating” value [4, 20] was 0 and the “Cocklebur plant response rating” value [4, 21] was 0. The “Cocklebur plant response rating” value [4, 22] was 0, the “Plant response rating, Cocklebur” value [4, 23] was 0 and the “Cocklebur plant response rating” value [4, 24] was 0. The “Crabgrass plant response rating” value [5, 17] was 0, the “Crabgrass plant response rating” value [5, 18] was 0 and the “Crabgrass plant response rating (0 to 10 scale)” value [5, 19] was 0. For the same compound, the “Crabgrass plant response rating” value [5, 20] was 0, the “Crabgrass plant response rating” value [5, 21] was 4 and the “Crabgrass plant response rating” value [5, 22] was 0. For the same compound, the “Plant response rating, Crabgrass” value [5, 23] was 2, the “Crabgrass plant response rating” value [5, 24] was 9 and the “Giant foxtail plant response rating” value [6, 17] was 0. For the same compound, the “Giant foxtail plant response rating” value [6, 18] was 0, the “Giant foxtail plant response rating (0 to 10 scale)” value [6, 19] was 0 and the “Giant foxtail plant response rating” value [6, 20] was 0. The “Giant foxtail plant response rating” value [6, 21] was 2, the “Giant foxtail plant response rating” value [6, 22] was 0 and the “Plant response rating, Giant foxtail” value [6, 23] was 0. The “Giant foxtail plant response rating” value [6, 24] was 7, the “Morningglory plant response rating” value [7, 17] was 0 and the “Morningglory plant response rating” value [7, 18] was 0. For the same compound, the “Morningglory plant response rating (0 to 10 scale)” value [7, 19] was 0, the “Morningglory plant response rating” value [7, 20] was 0 and the “Morningglory plant response rating” value [7, 21] was 0. For the same compound, the “Morningglory plant response rating” value [7, 22] was 0, the “Plant response rating, Morningglory” value [7, 23] was 0 and the “Morningglory plant response rating” value [7, 24] was 2. For the same compound, the “Redroot pigweed plant response rating” value [8, 17] was 0, the “Redroot pigweed plant response rating” value [8, 18] was 0 and the “Redroot pigweed plant response rating (0 to 10 scale)” value [8, 19] was 0. The “Redroot pigweed plant response rating” value [8, 20] was 0, the “Redroot pigweed plant response rating” value [8, 21] was 0 and the “Redroot pigweed plant response rating” value [8, 22] was 0. For the same compound, the “Plant response rating, Redroot pigweed” value [8, 23] was 0, the “Redroot pigweed plant response rating” value [8, 24] was 0 and the “Soybean plant response rating” value [9, 17] was 1. For the same compound, the “Soybean plant response rating” value [9, 18] was 0, the “Soybean plant response rating (0 to 10 scale)” value [9, 19] was 0 and the “Soybean plant response rating” value [9, 20] was 0. For the same compound, the “Soybean plant response rating” value [9, 21] was 0, the “Soybean plant response rating” value [9, 22] was 0 and the “Plant response rating, Soybean” value [9, 23] was 2. The “Soybean plant response rating” value [9, 24] was 2, the “Velvetleaf plant response rating” value [10, 18] was 0 and the “Velvetleaf plant response rating (0 to 10 scale)” value [10, 19] was 0. For the same compound, the “Velvetleaf plant response rating” value [10, 20] was 0, the “Velvetleaf plant response rating” value [10, 21] was 0 and the “Plant response rating, Velvetleaf” value [10, 23] was 0. The “Velvetleaf plant response rating” value [10, 24] was 0, the “Wheat plant response rating” value [11, 18] was 0 and the “Wheat plant response rating (0 to 10 scale)” value [11, 19] was 0. For the same compound, the “Wheat plant response rating” value [11, 20] was 0, the “Wheat plant response rating” value [11, 21] was 0 and the “Plant response rating, Wheat” value [11, 23] was 0. For the same compound, the “Wheat plant response rating” value [11, 24] was 0, the “Wild oats plant response rating” value [12, 18] was 0 and the “Wild oats plant response rating (0 to 10 scale)” value [12, 19] was 0. The “Wild oats plant response rating” value [12, 20] was 0, the “Wild oats plant response rating” value [12, 21] was 0 and the “Plant response rating, Wild oats” value [12, 23] was 0. The “Wild oats plant response rating” value [12, 24] was 0, the “Nutsedge plant response rating” value [13, 17] was 0 and the “Nutsedge plant response rating” value [13, 18] was 0. The “Nutsedge plant response rating (0 to 10 scale)” value [13, 19] was 0, the “Nutsedge plant response rating” value [13, 20] was 0 and the “Nutsedge plant response rating” value [13, 21] was 0. The “Nutsedge plant response rating” value [13, 22] was 0, the “Plant response rating, Nutsedge” value [13, 23] was 0 and the “Nutsedge plant response rating” value [13, 24] was 0. The “Rice plant response rating” value [14, 25] was 0, the “Rice plant response rating” value [14, 26] was 0 and the “Plant response rating, Rice” value [14, 27] was 0. The “Rice plant response rating” value [14, 28] was 0, the “S. Flatsedge plant response rating” value [15, 25] was 0 and the “S. Flatsedge plant response rating” value [15, 26] was 0. The “Plant response rating, S. Flatsedge” value [15, 27] was 0, the “S. Flatsedge plant response rating” value [15, 28] was 0 and the “Barnyardgrass plant response rating” value [16, 25] was 0. The “Barnyardgrass plant response rating” value [16, 26] was 0, the “Plant response rating, Barnyardgrass” value [16, 27] was 0 and the “Barnyardgrass plant response rating” value [16, 28] was 0.
